Laboratory results as given in patent publication US7803546B2, “Method of screening for sensitivity to kinase inhibitor therapy” (Cedars-Sinai Medical Center, priority 2002, dated 2010).

Key:
[1] = test system: non-small cell lung cancer; assay: Clinical response to TKI therapy in non-small cell lung cancer patients, correlated with EMP-1 expression; type: in vivo, human; details: NSCLC patients; EMP-1 detectable by TAQMAN
Description: The gene expression profiles of IR tumors were analyzed by gene chip analysis, using the gene arrays described in Alon et al., Proc. Natl. Acad. Sci. USA, vol. […] Presence of EMP-1 RNA was assessed with TAQMAN from paraffin samples.

[2] = test system: IRESSA-resistant (IR) CWR22R tumors; assay: Treatment of IRESSA-resistant (IR) CWR22R tumor lines; details: after three weeks of treatment, tumor growth curves
[3] = test system: androgen-independent (CWR22R) xenograft tumors
Description: (§1) A control (i.e., no TKI administered) is graphically depicted as well. This experiment was performed in an androgen-independent prostate xenograft model. […] The daily dosing was at the maximally tolerated dosage in the mice.
as §1

## COc1cc2ncnc(Nc3ccc(F)c(Cl)c3)c2cc1OCCCN1CCOCC1 [IRESSA, Gefitnib]
[1]
  Probability of response to therapy in individuals with EMP-1 expression above threshold: less than 10%
[2]
  Response of serially passaged tumors to IRESSA, generations F0-F3: demonstrated sensitivity
[3]; mouse, in vivo
  Tolerability of weekly dosing: well tolerated
[3]; summary range following IRESSA treatment (covers CWR22 and CWR22R)
  Decrease in tumor volume in this tumor model: 50-70%
